Reference: patent publication US12083165B2, “Thymosin alpha 1 for use in treatment of cystic fibrosis” (SciClone Pharmaceuticals International (SG) PTE. LTD., priority 2015, dated 2024)

Assays:
ΔF508 CFTR = ΔF508 CFTR (Homo sapiens, UniProt P13569, DEL508-508); test: Immunoblot of purified plasma membrane (PM) fraction for CFTR; format: cell-based; settings: 100 ng/ml Tα1, plasma membrane fraction
Experimental: CFTR Immunoblot Analysis. Immunoblot techniques using the anti-CFTR antibody (clone CF3, Abcam) were used to measure CFTR maturation in FRT, HEK-293, or HBE cells expressing CFTR or F508del-CFTR (34). After incubation, cells were harvested in ice-cold D-PBS solution (without calcium and magnesium) and pelleted at 1,000×g at 4° C. Cell pellets were lysed in 1% Nonidet P-40, 0.5% sodium deoxycholate, 200 mM NaCl, 10 mM Tris, pH 7.8, and 1 mM EDTA plus protease inhibitor mixture (1:250; Roche) for 30 min on ice. Lysates were spun for 10 min at 10,000×g at 4° C. to pellet nuclei and insoluble material. Approximately 12 μg total protein was heated in Laemmli buffer with 5% β-mercaptoethanol at 37° C. for 5 min and loaded onto a 3% to 8% Tris-acetate gel (Invitrogen). […] LiteAblotPlus chemiluminescence substrate (Euroclone S.p.A.), using ChemiDoc™ XRS+ Imagig system (Bio-Rad Laboratories) and blot quantification was obtained by densitometry image analysis using Image Lab 3.1.1 software (Bio-Rad).
The SV40 transformed CF airway epithelial cell line (CFBE41o−), homozygous for the ΔF508-CFTR mutation, was used (32). […] CFTR bands were quantified by densitometry and expressed as the C/B ratio. […] Densitometric measurement of the CFTR (C band) at the PM was expressed as CFTR PM/CFTR total ratio (Panel C, FIG. 2).

TMEM16A = TMEM16A mRNA expression by RT-PCR in HBE cells from control or CF patients; format: cell-based, human; settings: 100 ng/ml
Experimental: Reverse transcriptase-polymerase chain reaction (RT-PCR). Total RNA extraction and synthesis and PCR of cDNA were done on total lung cells as described (21, 22). Amplification efficiencies were validated and normalized against Gapdh. The thermal profile for SYBR Green real-time PCR was at 95° C. for 3 min, followed by 40 cycles of denaturation for 30 s at 95° C. and an annealing/extension step of 30 s at 60° C. Each data point was examined for integrity by analysis of the amplification plot. The mRNA-normalized data were expressed as relative mRNA in treated cells compared to that of unstimulated cells.
Pharmacological correction of the ion transport defect by targeting of mutant CFTR, or alternative ion channels that may compensate for CFTR dysfunction, has long been considered as an attractive approach to a causal therapy of CF (37). […] Activation of TMEM16A with pharmacological agents could circumvent the primary defect in CF, irrespective of CFTR genotype (40). […] Based upon these findings, whether TMEM16A expression was induced by Tα1 on HBE cells from control or CF patients has been evaluated. To this purpose cells have been exposed to 100 ng/ml of Tα1 up to 24 hours and assessed TMEM16A mRNA expression by RT-PCR on total RNA from cells.

Sequence of ΔF508 CFTR (P13569 with tags, fused parts or gaps DEL508-508): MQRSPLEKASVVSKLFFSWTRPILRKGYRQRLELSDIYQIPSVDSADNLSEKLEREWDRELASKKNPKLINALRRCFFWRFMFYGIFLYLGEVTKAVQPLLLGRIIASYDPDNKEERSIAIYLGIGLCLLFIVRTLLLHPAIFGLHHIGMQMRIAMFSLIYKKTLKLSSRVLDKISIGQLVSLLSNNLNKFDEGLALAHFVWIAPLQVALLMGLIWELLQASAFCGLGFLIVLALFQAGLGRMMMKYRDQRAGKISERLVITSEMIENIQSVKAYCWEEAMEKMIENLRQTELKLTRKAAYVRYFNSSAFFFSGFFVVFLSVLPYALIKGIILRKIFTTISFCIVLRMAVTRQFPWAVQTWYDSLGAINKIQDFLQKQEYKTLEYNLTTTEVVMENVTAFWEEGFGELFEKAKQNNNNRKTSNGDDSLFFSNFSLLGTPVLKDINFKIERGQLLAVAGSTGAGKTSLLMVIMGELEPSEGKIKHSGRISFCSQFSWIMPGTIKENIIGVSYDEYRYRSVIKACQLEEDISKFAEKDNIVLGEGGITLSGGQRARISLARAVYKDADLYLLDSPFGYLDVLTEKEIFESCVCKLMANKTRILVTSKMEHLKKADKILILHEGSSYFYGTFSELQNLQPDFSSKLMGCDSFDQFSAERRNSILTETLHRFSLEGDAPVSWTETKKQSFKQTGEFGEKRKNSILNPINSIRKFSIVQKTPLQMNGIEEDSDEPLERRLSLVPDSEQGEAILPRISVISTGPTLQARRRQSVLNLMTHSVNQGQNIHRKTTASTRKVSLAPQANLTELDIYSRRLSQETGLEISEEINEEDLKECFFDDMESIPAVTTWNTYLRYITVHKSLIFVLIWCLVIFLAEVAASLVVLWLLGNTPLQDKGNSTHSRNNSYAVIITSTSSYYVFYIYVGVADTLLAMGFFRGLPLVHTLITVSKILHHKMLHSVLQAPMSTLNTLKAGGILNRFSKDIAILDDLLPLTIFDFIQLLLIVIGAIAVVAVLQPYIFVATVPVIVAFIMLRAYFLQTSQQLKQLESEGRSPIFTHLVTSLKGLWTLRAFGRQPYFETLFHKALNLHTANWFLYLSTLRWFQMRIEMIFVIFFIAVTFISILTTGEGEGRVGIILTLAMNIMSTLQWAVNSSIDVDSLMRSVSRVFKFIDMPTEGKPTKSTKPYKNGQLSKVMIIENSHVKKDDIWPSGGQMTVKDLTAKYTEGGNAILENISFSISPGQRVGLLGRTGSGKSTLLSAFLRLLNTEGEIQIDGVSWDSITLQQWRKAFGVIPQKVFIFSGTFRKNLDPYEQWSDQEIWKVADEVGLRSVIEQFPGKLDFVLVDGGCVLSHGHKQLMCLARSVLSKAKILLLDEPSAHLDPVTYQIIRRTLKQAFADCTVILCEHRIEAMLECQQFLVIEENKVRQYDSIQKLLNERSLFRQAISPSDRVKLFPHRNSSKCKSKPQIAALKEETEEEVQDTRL

With “Ac-Ser-Asp-Ala-Ala-Val-Asp-Thr-Ser-Ser-Glu-Ile-Thr-Thr-Lys-Asp-Leu-Lys-Glu-Lys-Lys-Glu-Val-Val-Glu-Glu-Ala-Glu-Asn-O (Ac-SDAAVDTSSEITTKDLKEKKEVVEEAEN-OH; not fully specified; printed as Ac-Ser-Asp-Ala-Ala-Val-Asp-Thr-Ser-Ser-Glu-Ile-Thr-Thr-Lys-Asp-Leu-Lys-Glu-Lys-Lys-Glu-Val-Val-Glu-Glu-Ala-Glu-Asn-O; listed as Homo sapiens) [Tα1, naturally occurring polypeptide of 28 amino acid; supplied as purified sterile, lyophilized, acetylated polypeptide]” the “expression of ΔF508 CFTR at PM (CFTR PM/CFTR total ratio)” value (ΔF508 CFTR) was “increased”, the TMEM16A expression (TMEM16A; CF HBE cells, after 4 hours) was “markedly increased” and the TMEM16A expression (TMEM16A; CF HBE cells, at 24 hours) was “remains elevated”. The TMEM16A expression (TMEM16A; control HBE cells, after 4 hours) was “markedly increased” and the TMEM16A expression (TMEM16A; control HBE cells, at 24 hours) was “returned to baseline levels”.
